Several values for one entry are separate records, joined by “and”; a condition that tells them apart may be missing. Identical values can stand only once. Counter-ions that a name gives are not always drawn. Like-named read-outs stand apart in the source and are kept apart here.
Key:
[1] = system: A549; assay: In vitro tumor cell proliferation, A549; format: cell-based, human; conditions: many values given with an undefined *, read-out: In vitro Tumor Cell Proliferation (IC50, μM) Lung A549
Procedure, shortened: (§1)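 Cells seeded overnight at 37° C, then exposed to drug diluted in medium; at 3 days medium and drug replenished for another 4 days. Growth read by sulforhodamine B staining after TCA fixation; alternatively by CyQUANT, with plates frozen at −80° C after 3 days of drug.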

[2] = system: DMS-114; assay: In vitro tumor cell proliferation, DMS-114; format: cell-based, human; conditions: many values given with an undefined *, read-out: In vitro Tumor Cell Proliferation (IC50, μM) Lung DMS-114
Procedure, shortened: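 Human small cell lung carcinoma DMS-114 cells plated overnight, then drug-treated for 3 days, medium and drug renewed, and incubated 4 more days. Growth read by sulforhodamine B staining after TCA fixation; alternatively by CyQUANT after 3 days' drug exposure and freezing at −80 °C.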

[3] = molecular target: T1, cdk2/cyclin E (Homo sapiens, UniProt P24941); assay: Cyclin-Dependent Kinase 2 Assay (cdk2/cyclin E, GST-Rb substrate); format: biochemical; conditions: recombinant cdk2/cyclin E, 10 μM ATP, 30 min at 30° C., several values in a cell = separate determinations, read-out: CDK-2 Inhibition IC50
T1 construct: made in house; host or cells: insect cells (baculovirus co-infection)
Procedure: Substrate: GST-Rb as described above for cdk4/cyclin D1
Assay conditions for cdk2/cyclin E were identical to those for cdk4/cyclin D1 including the substrate. The concentration of recombinant cdk2/cyclin E in the assay was 0.1 μg per 100 μl assay. Incubation was for 30 min at 30° C.

[4] = system: PC-3; assay: In vitro tumor cell proliferation, PC-3; format: cell-based, human; conditions: many values given with an undefined *, read-out: In vitro Tumor Cell Proliferation (IC50, μM) Prostate PC-3
Procedure, shortened: as §1

[5] = system: MDA-MB-231; assay: In vitro tumor cell proliferation, MDA-MB-231; format: cell-based, human; conditions: sulforhodamine B or CyQUANT assay, many values given with an undefined *, read-out: In vitro Tumor Cell Proliferation (IC50, μM) Breast MDA-MB-231
Procedure, shortened: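 Proliferation quantified by SRB staining of TCA-fixed cells after 3 days of drug plus 4 days with replenished drug, following overnight attachment at 37 °C.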

[6] = system: HT-29; assay: In vitro tumor cell proliferation, HT-29; format: cell-based, human; conditions: many values given with an undefined *, read-out: In vitro Tumor Cell Proliferation (IC50, μM) Colon HT-29
Procedure, shortened: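 Growth was quantified either with CyQUANT, plates frozen at −80° C after 3 days of drug, or by sulforhodamine B staining of TCA-fixed cells after 3 days of drug plus 4 days with fresh drug. Trypan blue-excluding HT-29 cells were plated overnight at 37° C before dosing.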

[7] = system: MDA-MB-435; assay: In vitro tumor cell proliferation, MDA-MB-435; format: cell-based; conditions: values given with an undefined *, read-out: In vitro Tumor Cell Proliferation (IC50, μM) Breast MDA-MB-435
Procedure, shortened: as §1

[8] = system: Colo-205; assay: In vitro tumor cell proliferation, Colo-205; format: cell-based; conditions: values given with an undefined *, read-out: In vitro Tumor Cell Proliferation (IC50, μM) Colon Colo-205
Procedure, shortened: as §1

[9] = system: DU145; assay: In vitro tumor cell proliferation, DU145; format: cell-based, human; conditions: many values given with an undefined *, read-out: In vitro Tumor Cell Proliferation (IC50, μM) Prostate DU145
Procedure, shortened: as §1

[10] = molecular target: T2, cdk4/cyclin D1 (Homo sapiens, UniProt P11802); assay: Cyclin-dependent Kinase 4 Assay (cdk4/cyclin D1, GST-Rb substrate); format: biochemical; conditions: cdk4/cyclin D1 insect cell lysate, 10 μM ATP, 30 min at 37° C., several values = separate determinations, read-out: CDK4 Inhibition IC50
T2 construct: made in house; host or cells: Sf9 insect cells (Bac-to-Bac baculovirus, pFastBac)
Procedure, shortened: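 IC50 against cdk4 measured by scintillation counting of bead-bound GST-Rb (0.5 μg) after filtration and four TNEN washes. Reaction was 30 min at 37 °C in HEPES pH 7.5 buffer with 10 mM MgCl2 and 1 mM EGTA. Enzyme source was 0.1 μg Sf9 lysate coinfected with cdk4 and cyclin D1.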

[11] = Homo sapiens, MDA-MB-231, MDA-MB-231
[12] = Homo sapiens, MDA-MB-435, MDA-MB-435
[13] = Homo sapiens, COLO 205, Colo-205

T2 sequence (P11802 whole entry): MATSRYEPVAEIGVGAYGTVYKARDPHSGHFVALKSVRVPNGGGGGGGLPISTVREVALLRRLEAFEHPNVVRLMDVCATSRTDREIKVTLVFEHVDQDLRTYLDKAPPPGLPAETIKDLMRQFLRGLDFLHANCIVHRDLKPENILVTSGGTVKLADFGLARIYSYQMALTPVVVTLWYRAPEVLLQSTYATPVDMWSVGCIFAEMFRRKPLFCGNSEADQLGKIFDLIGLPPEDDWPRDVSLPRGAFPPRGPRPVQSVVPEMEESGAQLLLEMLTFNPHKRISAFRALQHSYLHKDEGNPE
T2 sequence (P24385 whole entry partner): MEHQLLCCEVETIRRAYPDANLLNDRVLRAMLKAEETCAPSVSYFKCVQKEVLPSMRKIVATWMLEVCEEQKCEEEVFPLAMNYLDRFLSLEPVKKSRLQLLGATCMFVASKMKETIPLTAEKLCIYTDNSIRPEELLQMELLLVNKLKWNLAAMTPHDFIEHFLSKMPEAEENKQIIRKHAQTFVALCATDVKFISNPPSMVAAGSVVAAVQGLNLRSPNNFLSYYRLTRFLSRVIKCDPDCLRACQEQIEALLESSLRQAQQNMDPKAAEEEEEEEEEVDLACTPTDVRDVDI

Structure (SMILES)	IC50 ([1]; A549, trihydrochloride) [µM]	IC50 ([1]; Homo sapiens, A549, A549) [µM]	IC50 ([2]; DMS-114, trihydrochloride) [µM]	IC50 ([2]; Homo sapiens, DMS-114, DMS-114) [µM]	IC50 [3]	IC50 ([4]; Homo sapiens, PC-3, PC-3) [µM]	IC50 ([4]; PC-3, trihydrochloride) [µM]	IC50 [5, 11] [µM]	IC50 ([5]; MDA-MB-231, trihydrochloride) [µM]	IC50 ([6]; HT-29, trihydrochloride) [µM]	IC50 ([6]; Homo sapiens, HT-29, HT-29) [µM]	IC50 [7, 12] [µM]	IC50 ([7]; MDA-MB-435, trihydrochloride) [µM]	IC50 [8, 13] [µM]	IC50 ([9]; DU145, trihydrochloride) [µM]	IC50 ([9]; Homo sapiens, DU-145, DU145) [µM]	IC50 [10]	IC50 ([8]; Colo-205, trihydrochloride) [µM]
N[C@H]1CC[C@H](Nc2nc(NC3CCN(Cc4cccc(F)c4)CC3)c3ncn(C4CCCC4)c3n2)CC1 [Example 147-j, 2-[Trans-(4-aminocyclohexyl)amino]-6-[4-[1-(3-fluorobenzyl)]piperidinylamino]-9-cyclopentylpurine trihydrochloride]	0.14	0.15	0.25	0.37	200 nM and 210 nM	0.17	0.26	0.2	0.21	0.22	0.3	0.27	0.3	0.17	0.2	0.21	1300 nM and 720 nM	–
N[C@H]1CC[C@H](Nc2nc(NC3CCN(Cc4ccccc4F)CC3)c3ncn(C4CCCC4)c3n2)CC1 [Example 147-k, 2-[Trans-(4-aminocyclohexyl)amino]-6-[4-[1-(2-fluorobenzyl)]piperidinylamino]-9-cyclopentylpurine trihydrochloride]	0.16	0.29	0.29	0.45	200 nM and 170 nM	0.35	0.34	–	0.32	0.26	0.4	0.39	–	0.26	0.15	0.3	2900 nM	0.15
N[C@H]1CC[C@H](Nc2nc(NC3CCN(Cc4ccc(F)cc4)CC3)c3ncn(C4CCCC4)c3n2)CC1 [Example 147-l, 2-[Trans-(4-aminocyclohexyl)amino]-6-[4-[1-(4-fluorobenzyl)]piperidinylamino]-9-cyclopentylpurine trihydrochloride]	0.19	0.26	0.43	0.48	260 nM and 170 nM and 280 nM	–	0.41	0.33	0.29	0.4	0.37	0.46	–	0.26	0.29	0.3	2000 nM and 2700 nM and 1300 nM	0.19
N[C@H]1CC[C@H](Nc2nc(NC3CCN(Cc4cccc(C(F)(F)F)c4)CC3)c3ncn(C4CCCC4)c3n2)CC1 [Example 147-m, 2-[Trans-(4-aminocyclohexyl)amino]-6-[4-[1-(3-trifluoromethylbenzyl)]piperidinylamino]-cyclopentylpurine trihydrochloride]	0.22	0.17	0.32	0.29	65 nM and 77 nM	0.25	0.5	0.32	0.33	0.35	0.34	0.42	0.56	0.18	0.35	0.32	370 nM	0.17
N[C@H]1CC[C@H](Nc2nc(NC3CCN(Cc4c(F)cccc4Cl)CC3)c3ncn(C4CCCC4)c3n2)CC1 [Example 147-n, 2-[Trans-(4-aminocyclohexyl)amino]-6-[4-[1-(2-chloro-6-fluorobenzyl)]piperidinylamino]-cyclopentylpurine trihydrochloride]	0.33	0.39	0.8	1.1	160 nM and 340 nM and 440 nM	0.73	0.93	0.81	0.72	0.64	0.71	0.89	1	0.44	0.59	0.6	1600 nM and 3100 nM	0.32
N[C@H]1CC[C@H](Nc2nc(NC3CCN(Cc4ccc(Cl)c(Cl)c4)CC3)c3ncn(C4CCCC4)c3n2)CC1 [Example 147-o, 2-[Trans-(4-aminocyclohexyl)amino]-6-[4-[1-(3,4-dichlorobenzyl)]piperidinylamino]-9-cyclopentylpurine trihydrochloride]	0.44	0.42	0.71	0.78	200 nM and 160 nM	0.64	0.92	0.77	0.9	0.77	0.83	0.92	1.1	0.63	0.69	0.76	1800 nM	0.45
N[C@H]1CC[C@H](Nc2nc(NC3CCN(Cc4ccc5ccccc5c4)CC3)c3ncn(C4CCCC4)c3n2)CC1 [Example 147-p, 2-[Trans-(4-aminocyclohexyl)amino]-6-[4-[1-(2-naphthyl)methyl]piperidinylamino]-9-cyclopentylpurine trihydrochloride]	0.34	0.39	0.68	0.91	300 nM and 110 nM and 360 nM	0.46	0.66	0.57	0.6	0.72	0.71	0.59	0.68	0.45	–	0.54	3100 nM and 3900 nM	0.48
N[C@H]1CC[C@H](Nc2nc(NC3CCN(Cc4cc(Cl)ccc4Cl)CC3)c3ncn(C4CCCC4)c3n2)CC1 [Example 147-r, 2-[Trans-(4-aminocyclohexyl)amino]-6-[4-[1-(2,5-dichlorobenzyl)]piperidinylamino]-9-cyclopentylpurine trihydrochloride]	–	0.33	0.48	0.62	90 nM and 580 nM and 550 nM and 610 nM	0.39	0.55	–	0.48	0.47	0.49	0.6	0.65	0.32	0.4	0.45	7200 nM and 4300 nM	0.38
N[C@H]1CC[C@H](Nc2nc(NC3CCN(CC4CCCCC4)CC3)c3ncn(C4CCCC4)c3n2)CC1 [Example 147-s, 2-[Trans-(4-aminocyclohexyl)amino]-6-[4-(1-cyclohexylmethyl)piperidinylamino]-9-cyclopentylpurine trihydrochloride]	0.2	0.22	0.3	0.57	120 nM and 100 nM	–	0.37	–	0.33	0.33	0.35	0.42	0.43	0.28	0.27	0.29	1300 nM and 620 nM	0.23
